Four molecules from patent US12234231B2, “EIF4E inhibitors and uses thereof” (PIC Therapeutics, Inc., priority 2021, dated 2025) can be followed below.

The structures appear in SMILES notation.

The target in the assay is T1, Human eIF4E (aa 28-217) (Homo sapiens, UniProt P06730).
T1 construct: Human eIF4E (aa 28-217) with a C-terminal His-tag; made in house
T1 sequence (P06730 28-217): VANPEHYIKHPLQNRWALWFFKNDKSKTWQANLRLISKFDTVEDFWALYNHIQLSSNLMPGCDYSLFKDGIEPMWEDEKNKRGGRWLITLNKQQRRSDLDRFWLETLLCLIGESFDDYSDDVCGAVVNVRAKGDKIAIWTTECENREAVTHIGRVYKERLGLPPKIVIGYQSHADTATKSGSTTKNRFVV
Nature of the assay: Human eIF4E/4G2 binding assay (TR-FRET). To be noted: purified eIF4E with biotin labeled 4G2 peptide, 4 hours preincubation at room temperature. As to the method:
Example 3. Compound Testing in Human eIF4E/4G2 Binding Assay
1004461 Human eIF4E (aa 28-217) with a C-terminal His-tag was expressed in E. coli in inclusion bodies. The protein was solubilized with 8 M urea and purified under denaturing conditions using nickel-charged HisTrap HP columns (GE Healthcare). The purified protein was then refolded by diluting in 20 mM Hepes pH 7.0, 0.5 M NaCl, 1 mM DTT, 1 mM EDTA, 0.5 M arginine plus 6 M urea, and then dialyzing overnight into the same buffer without the urea. The protein was further dialyzed into 20 mM Hepes, pH 6.5, 50 mM NaCl, 1 mM EDTA, 1 mM DTT, and concentrated using Hitrap SP sepharose FF columns (GE Healthcare). The concentrated protein was dialyzed into 20 mM Hepes, pH 7.0, 0.5M NaCl, 5 mM DTT and 10% glycerol, and stored at −80° C. until use.
Test compounds (3.43 mM stock in DMSO) were diluted 2-fold in series in DMSO (10 concentration points). Compound solutions (1.2 μl/well) were added into black 384-well polypropylene microplates (Matrix, Thermal Scientific). Twenty-two microliters per well of Assay Buffer (50 mM NaPi, pH 6.5, 50 mM KCl, 1 mM DTT and 0.5 mg/ml gamma globulin) and eight microliters per well of 82.5 nM purified eIF4E in Assay Buffer were added. The samples were incubated at room temperature (20-23° C.) for 4 hours. Biotin labeled 4G2 peptide (Ac-Lys-Gln-Tyr-Asp-Arg-Glu-Phe-Leu-Leu-Asp-Phe-Gln-Phe-Met-Pro-Lys(Aha-Bio)-NH2, 1.75 μM stock in DMSO) was diluted to 0.14 μM in Assay Buffer (without DTT) and 5 μl/well was added. The samples were incubated at room temperature for 20 min. Five microliters per well of 6.4 nM Eu-streptavidin (Eu-SA, Perkin Elmer) and 80 nM Allophycocyanin (APC)-anti His antibody (Columbia Biosciences) in Assay Buffer (without DTT) were then added and the samples were incubated at room temperature for 20 min.
Assay signals were monitored by reading excitation at 340 nm and emission fluorescence at 615 nm and 665 nm on an Envision reader (Perkin Elmer). Normalized TR-FRET (time-resolved fluorescence resonance energy transfer) assay signal (Rn) was calculated by the formula: Rn=[(A−Ba−C×D)/(D−Bd)]×(Dc−Bd) • Where A is the fluorescence intensity of the sample at 665 nm, • D is the fluorescence intensity of the sample at 615 nm, • Ba and Bd are plate backgrounds at 665 nm and 615 nm, respectively, • Dc is the fluorescence intensity of 0.78 nM Eu-SA in the assay buffer at 615 nm
The cross-talk factor (C) is determined by the following formula: C=(Ac−Ba)/(Dc−Bd) Where Ac is the fluorescence intensity of 0.78 nM Eu-SA in the assay buffer at 665 nm.
IC50 values were calculated using xLFit program (IDBS). Table 2 below lists EC50 of some compounds, wherein A represents IC50≤0.5 μM; B represents 0.5 uM<IC50≤1 μM; and C represents IC50>1 μM.
A general note: In TR-FRET formats the signal depends on donor and acceptor labels being close together.
A word on the IC50: it is the concentration that inhibits the measured activity by half. A higher IC50 goes with lower potency. As to `COCCOc1cc(-c2nc(Nc3ncc(-c4cccs4)cc3C(=O)O)sc2CC(C)(C)C)ccc1Cl` [I-95], the IC50 was not above 500 nM.
The same measure for `COCCOc1ccc(-c2nc(Nc3ncc(-c4cccs4)cc3C(=O)O)sc2CC(C)C)cc1F` [I-30]: 500 to 1000 nM.
For the molecule `COCCOc1ccc(-c2nc(Nc3cnc(-c4cccs4)cc3C(=O)O)sc2Cc2ccccc2)cc1F` [I-63], the IC50 was not above 500 nM.
The value for `CNCCNC(=O)c1cc(-c2cccs2)cnc1Nc1nc(-c2ccc(OCCOC)c(F)c2)c(CC(C)C)s1` [I-56, 2-((4-(3-fluoro-4-(2-methoxyethoxy)phenyl)-5-isobutylthiazol-2-yl)amino)-N-(2-(methylamino)ethyl)-5-(thiophen-2-yl)nicotinamide] was more than 1000 nM.
